Calls of active or inactive are those of the source. Rule as the data show it, for most assays here: actives have a measured IC50 and inactives only a lower limit.
Assays:
[1] = biological target: DNA dC->dU-editing enzyme APOBEC-3A (Homo sapiens, UniProt P31941); test: APOBEC3A DNA deaminase inhibitors, dose response, biochemical (AID 504722); assay type: functional
[2] = biological target: T1, Carboxy-terminal domain RNA polymerase II polypeptide A small phosphatase 1 (Homo sapiens, UniProt Q9GZU7); test: inhibitors of CTDSP1, concentration-response testing, biochemical assay, absorbance-based, actives from ultra-high-throughput screening (AID 540297); assay type: functional
T1 sequence (Q9GZU7 whole entry): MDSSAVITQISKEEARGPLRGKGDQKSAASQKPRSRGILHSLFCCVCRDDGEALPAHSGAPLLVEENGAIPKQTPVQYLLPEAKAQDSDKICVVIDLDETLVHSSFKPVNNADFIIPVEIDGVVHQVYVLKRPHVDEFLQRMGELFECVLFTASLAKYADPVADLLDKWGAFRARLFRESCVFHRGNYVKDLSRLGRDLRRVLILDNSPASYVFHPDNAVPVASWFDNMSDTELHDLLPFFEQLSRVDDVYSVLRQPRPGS

[3] = biological target: Beta-adrenergic receptor kinase 1 (Homo sapiens, UniProt P25098); test: aptamer displacement from bead-bound GRK2 – biochemical, cherry pick 1, bead flow cytometry, dose response (AID 504500)
Beta-adrenergic receptor kinase 1, sequence (P25098 whole entry): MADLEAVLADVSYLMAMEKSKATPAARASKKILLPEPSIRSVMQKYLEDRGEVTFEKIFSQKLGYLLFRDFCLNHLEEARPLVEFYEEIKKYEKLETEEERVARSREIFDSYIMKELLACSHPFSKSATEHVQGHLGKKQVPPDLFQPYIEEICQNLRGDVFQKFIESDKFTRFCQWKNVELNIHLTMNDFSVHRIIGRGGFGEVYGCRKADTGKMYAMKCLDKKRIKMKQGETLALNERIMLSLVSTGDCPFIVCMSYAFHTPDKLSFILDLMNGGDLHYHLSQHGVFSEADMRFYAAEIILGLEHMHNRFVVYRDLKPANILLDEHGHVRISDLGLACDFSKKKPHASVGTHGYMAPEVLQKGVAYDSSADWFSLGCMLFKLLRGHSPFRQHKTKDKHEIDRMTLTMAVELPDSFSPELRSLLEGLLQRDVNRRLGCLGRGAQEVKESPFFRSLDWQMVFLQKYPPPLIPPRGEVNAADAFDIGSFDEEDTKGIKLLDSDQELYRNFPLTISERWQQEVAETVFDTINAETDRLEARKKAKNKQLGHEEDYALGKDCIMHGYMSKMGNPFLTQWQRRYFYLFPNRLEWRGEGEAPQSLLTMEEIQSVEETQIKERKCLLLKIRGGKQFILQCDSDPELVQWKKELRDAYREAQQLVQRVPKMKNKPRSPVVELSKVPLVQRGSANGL

[4] = biological target: T2, Apoptotic protease-activating factor 1 (Homo sapiens, UniProt O14727); test: activation of Apaf-1 mediated apoptosis – fluorescent, uHTS hits, dose response (AID 588554); assay type: functional
T2 sequence (O14727 whole entry): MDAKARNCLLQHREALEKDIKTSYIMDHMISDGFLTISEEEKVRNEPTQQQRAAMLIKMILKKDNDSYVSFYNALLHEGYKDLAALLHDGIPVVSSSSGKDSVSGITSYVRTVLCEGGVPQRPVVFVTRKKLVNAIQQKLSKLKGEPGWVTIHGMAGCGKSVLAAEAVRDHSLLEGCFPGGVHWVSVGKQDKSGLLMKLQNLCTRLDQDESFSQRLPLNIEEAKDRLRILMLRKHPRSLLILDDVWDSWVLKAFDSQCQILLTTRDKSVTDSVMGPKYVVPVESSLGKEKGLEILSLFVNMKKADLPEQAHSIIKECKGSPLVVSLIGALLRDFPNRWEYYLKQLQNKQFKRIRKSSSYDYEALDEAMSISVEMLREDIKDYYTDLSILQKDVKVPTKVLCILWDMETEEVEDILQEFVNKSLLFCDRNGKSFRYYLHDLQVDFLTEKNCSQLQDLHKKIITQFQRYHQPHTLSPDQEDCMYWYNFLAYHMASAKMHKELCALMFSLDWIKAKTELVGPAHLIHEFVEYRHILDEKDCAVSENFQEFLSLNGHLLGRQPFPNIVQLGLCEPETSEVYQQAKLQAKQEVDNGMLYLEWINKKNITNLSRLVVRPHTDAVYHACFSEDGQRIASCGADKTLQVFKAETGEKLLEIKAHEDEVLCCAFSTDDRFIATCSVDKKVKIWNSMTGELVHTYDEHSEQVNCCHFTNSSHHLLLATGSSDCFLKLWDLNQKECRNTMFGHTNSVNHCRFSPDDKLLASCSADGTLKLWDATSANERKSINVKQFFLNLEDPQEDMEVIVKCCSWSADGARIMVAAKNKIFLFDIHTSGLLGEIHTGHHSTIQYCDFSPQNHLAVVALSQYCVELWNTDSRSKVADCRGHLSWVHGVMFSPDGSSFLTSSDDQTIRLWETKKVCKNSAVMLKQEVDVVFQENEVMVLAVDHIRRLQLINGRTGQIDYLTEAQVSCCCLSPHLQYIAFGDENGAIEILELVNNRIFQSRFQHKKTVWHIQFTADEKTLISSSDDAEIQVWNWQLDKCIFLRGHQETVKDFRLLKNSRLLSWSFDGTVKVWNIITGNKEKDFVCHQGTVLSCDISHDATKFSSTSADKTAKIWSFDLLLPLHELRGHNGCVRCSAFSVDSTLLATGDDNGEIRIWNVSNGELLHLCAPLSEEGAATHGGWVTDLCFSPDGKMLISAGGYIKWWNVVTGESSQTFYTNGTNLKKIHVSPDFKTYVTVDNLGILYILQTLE

[5] = biological target: DNA dC->dU-editing enzyme APOBEC-3G (Homo sapiens, UniProt Q9HC16); test: Dose Response confirmation of small molecule APOBEC3G DNA Deaminase Inhibitors via a fluorescence-based single-stranded DNA deaminase assay. [Related pubchem assays (depositor defined):AID493012, AID493028]; assay type: functional
DNA dC->dU-editing enzyme APOBEC-3G, sequence (Q9HC16 whole entry): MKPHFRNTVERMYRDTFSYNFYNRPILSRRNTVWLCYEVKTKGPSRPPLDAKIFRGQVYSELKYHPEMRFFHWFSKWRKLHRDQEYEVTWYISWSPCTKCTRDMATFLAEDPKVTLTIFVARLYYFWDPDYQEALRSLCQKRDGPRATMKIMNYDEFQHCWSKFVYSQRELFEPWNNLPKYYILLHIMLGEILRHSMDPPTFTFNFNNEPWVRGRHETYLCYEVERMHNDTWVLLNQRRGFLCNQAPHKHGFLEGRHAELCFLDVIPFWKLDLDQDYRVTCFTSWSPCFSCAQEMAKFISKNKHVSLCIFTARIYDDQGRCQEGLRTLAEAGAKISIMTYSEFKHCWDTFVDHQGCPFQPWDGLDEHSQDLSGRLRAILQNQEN

Phospholipase D2 = Phospholipase D2 (Homo sapiens, UniProt O14939); test: PLD2 inhibitor potency in cells, dose response (AID 602147); assay type: functional;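 also: cellular assay in HEK293 cells overexpressing GFP-tagged PLD2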
Phospholipase D2, sequence (O14939 whole entry): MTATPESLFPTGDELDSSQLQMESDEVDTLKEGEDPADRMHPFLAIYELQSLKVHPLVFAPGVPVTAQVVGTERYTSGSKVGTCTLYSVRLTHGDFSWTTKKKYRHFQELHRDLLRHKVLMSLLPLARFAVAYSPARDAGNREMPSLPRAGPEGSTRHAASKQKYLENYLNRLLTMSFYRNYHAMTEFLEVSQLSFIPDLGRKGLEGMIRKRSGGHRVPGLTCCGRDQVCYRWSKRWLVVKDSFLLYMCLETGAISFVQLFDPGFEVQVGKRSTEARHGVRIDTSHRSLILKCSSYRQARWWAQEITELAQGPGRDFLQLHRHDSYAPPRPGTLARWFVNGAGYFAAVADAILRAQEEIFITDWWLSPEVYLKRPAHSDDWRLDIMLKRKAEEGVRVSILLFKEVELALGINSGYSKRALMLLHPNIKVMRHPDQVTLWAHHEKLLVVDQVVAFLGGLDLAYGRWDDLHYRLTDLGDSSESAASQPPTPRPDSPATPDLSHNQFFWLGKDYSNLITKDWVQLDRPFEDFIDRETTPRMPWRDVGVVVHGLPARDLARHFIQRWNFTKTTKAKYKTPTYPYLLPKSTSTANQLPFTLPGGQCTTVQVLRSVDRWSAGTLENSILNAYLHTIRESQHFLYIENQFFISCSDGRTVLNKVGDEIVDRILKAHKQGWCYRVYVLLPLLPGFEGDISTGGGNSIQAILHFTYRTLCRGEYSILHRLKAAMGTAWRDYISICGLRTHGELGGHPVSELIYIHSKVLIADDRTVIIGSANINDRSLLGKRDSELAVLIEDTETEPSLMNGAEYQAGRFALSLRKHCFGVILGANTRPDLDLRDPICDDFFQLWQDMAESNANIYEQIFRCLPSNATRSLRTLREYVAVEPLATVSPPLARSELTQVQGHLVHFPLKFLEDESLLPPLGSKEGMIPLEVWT

Phospholipase D1 = Phospholipase D1 (Homo sapiens, UniProt Q13393); test: PLD1 inhibitor potency in cells, dose response (AID 602151); assay type: functional;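 also: cellular PLD1 assay in Calu-1 cells stimulated with PMA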
Phospholipase D1, sequence (Q13393 whole entry): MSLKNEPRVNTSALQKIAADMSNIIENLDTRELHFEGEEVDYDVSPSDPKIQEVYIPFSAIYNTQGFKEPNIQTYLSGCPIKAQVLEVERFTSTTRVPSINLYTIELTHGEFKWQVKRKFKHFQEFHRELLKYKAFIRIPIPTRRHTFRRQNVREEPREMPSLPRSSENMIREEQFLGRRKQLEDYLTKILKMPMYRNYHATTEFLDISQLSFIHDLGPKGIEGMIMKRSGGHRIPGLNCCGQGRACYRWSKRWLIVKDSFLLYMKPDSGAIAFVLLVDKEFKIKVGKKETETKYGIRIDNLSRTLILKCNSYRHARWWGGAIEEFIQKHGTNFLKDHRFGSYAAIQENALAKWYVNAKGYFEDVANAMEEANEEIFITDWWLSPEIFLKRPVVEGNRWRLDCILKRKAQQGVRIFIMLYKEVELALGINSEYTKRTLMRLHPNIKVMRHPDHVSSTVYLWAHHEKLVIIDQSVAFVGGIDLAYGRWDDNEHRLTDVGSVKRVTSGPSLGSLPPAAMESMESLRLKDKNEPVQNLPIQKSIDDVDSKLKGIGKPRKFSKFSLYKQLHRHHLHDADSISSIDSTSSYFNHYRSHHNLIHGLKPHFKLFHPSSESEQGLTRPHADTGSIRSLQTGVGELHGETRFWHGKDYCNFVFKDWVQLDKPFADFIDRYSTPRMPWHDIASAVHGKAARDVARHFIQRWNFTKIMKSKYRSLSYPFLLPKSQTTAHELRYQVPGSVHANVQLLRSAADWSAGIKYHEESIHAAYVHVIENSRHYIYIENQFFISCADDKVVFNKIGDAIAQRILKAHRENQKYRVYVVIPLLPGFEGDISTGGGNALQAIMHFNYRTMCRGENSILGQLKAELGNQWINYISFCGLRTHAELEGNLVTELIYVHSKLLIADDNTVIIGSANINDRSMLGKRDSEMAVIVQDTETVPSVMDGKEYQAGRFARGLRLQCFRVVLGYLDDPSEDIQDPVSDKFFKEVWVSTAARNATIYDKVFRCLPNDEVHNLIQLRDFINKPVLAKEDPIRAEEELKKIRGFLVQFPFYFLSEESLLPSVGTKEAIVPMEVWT

[6] = biological target: T3, Sentrin-specific protease 7 (Homo sapiens, UniProt Q9BQF6); test: SENP7 protease inhibitors, SAR follow-up, biochemical, luminescence, set 2 (AID 588600); assay type: functional
T3 sequence (Q9BQF6 whole entry): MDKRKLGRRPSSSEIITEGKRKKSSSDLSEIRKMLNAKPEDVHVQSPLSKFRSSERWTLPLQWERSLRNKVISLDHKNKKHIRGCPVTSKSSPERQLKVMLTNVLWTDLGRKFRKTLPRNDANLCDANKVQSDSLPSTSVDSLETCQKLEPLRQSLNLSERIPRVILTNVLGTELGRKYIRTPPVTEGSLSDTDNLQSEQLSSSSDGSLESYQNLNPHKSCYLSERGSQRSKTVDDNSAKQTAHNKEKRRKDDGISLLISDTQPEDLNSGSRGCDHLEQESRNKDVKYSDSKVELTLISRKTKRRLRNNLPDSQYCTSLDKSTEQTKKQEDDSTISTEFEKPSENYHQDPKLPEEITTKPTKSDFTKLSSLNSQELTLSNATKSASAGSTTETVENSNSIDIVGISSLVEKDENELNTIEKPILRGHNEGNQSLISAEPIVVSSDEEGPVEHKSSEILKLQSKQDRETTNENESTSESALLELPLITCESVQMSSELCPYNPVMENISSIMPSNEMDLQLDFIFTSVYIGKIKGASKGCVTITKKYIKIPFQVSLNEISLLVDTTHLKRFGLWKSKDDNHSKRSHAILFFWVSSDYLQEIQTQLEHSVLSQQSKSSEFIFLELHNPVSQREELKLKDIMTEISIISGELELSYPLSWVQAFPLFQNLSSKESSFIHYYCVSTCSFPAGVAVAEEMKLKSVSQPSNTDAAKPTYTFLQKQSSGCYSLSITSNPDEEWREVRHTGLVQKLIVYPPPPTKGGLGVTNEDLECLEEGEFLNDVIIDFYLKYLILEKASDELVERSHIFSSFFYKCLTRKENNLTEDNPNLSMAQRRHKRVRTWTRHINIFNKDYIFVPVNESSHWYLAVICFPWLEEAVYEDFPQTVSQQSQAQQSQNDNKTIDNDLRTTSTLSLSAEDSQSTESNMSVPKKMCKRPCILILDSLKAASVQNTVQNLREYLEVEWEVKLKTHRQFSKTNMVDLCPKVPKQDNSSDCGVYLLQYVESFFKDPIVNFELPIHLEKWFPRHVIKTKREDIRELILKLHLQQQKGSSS

[7] = biological target: T4, Sentrin-specific protease 6 (Homo sapiens, UniProt Q9GZR1); test: SENP6 protease inhibitors, SAR follow-up, biochemical, luminescence, set 2 (AID 588598); assay type: functional
T4 sequence (Q9GZR1 whole entry): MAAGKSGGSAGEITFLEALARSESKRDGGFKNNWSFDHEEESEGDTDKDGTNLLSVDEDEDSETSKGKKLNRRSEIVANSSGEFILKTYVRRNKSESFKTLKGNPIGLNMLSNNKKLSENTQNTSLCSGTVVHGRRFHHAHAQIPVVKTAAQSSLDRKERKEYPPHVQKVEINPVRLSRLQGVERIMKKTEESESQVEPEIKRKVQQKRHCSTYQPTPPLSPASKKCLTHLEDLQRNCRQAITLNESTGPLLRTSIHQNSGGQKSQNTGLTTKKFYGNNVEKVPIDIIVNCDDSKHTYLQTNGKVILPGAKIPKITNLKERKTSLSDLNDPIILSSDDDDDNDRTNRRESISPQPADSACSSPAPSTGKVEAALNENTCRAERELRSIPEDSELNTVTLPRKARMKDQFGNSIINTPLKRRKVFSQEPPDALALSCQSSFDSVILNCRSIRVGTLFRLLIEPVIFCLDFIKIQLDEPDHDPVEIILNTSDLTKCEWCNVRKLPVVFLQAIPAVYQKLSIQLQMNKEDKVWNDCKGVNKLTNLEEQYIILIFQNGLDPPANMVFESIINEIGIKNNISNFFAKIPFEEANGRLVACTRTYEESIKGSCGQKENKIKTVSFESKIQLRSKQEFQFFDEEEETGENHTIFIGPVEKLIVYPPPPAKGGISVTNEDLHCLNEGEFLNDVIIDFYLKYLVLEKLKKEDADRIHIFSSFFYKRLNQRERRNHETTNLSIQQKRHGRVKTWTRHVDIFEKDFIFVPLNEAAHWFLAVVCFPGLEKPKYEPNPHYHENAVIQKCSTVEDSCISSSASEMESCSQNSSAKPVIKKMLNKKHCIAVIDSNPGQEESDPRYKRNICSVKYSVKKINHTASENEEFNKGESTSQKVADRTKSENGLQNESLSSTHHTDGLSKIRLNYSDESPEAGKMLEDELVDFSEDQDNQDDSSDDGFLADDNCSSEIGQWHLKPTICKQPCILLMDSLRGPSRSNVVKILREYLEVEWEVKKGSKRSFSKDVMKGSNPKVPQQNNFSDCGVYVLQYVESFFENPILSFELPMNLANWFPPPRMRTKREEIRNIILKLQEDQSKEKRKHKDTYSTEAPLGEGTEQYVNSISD

[8] = biological target: T5, Sentrin-specific protease 8 (Homo sapiens, UniProt Q96LD8); test: SENP8 protease inhibitors, SAR follow-up, biochemical, luminescence, set 2 (AID 588601); assay type: functional
T5 sequence (Q96LD8 whole entry): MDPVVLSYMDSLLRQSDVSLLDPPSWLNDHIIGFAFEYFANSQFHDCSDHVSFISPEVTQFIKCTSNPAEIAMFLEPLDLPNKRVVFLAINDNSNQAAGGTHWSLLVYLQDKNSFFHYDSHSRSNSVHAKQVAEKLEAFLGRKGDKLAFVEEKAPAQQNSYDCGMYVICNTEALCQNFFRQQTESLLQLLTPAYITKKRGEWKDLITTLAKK

Caspase-3 [9] = biological target: T6, Caspase-3 (Homo sapiens, UniProt P42574); test: caspase-3 inhibitors as off-family protease, SAR follow-up, selectivity assay for SENP protease inhibitor project, biochemical, luminescence, set 2 (AID 588599); assay type: functional
T6 sequence (P42574 whole entry): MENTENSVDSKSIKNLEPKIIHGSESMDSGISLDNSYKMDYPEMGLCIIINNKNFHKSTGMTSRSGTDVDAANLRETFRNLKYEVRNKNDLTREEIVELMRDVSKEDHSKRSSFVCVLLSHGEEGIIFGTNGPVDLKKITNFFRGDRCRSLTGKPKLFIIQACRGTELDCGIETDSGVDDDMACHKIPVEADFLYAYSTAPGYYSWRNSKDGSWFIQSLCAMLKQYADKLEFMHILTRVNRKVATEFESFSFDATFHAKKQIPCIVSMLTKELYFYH

[10] = biological target: T4, Sentrin-specific protease 6; test: SAR Analysis of small molecule inhibitors of Sentrin-specific protease 6 (SENP6) using a Luminescent assay. [Related pubchem assays (depositor defined):AID2582, AID2599]; assay type: functional
Caspase-3 [11] = biological target: T6, Caspase-3; test: SAR Analysis of small molecule inhibitors of Sentrin-specific proteases (SENPs) using a Caspase-3 Selectivity assay. [Related pubchem assays (depositor defined):AID2540, AID2599, AID434973, AID489001]; assay type: functional
[12] = biological target: T5, Sentrin-specific protease 8; test: SENP8 protease inhibitors, SAR follow-up, biochemical, luminescence (AID 504501); assay type: functional
[13] = biological target: T3, Sentrin-specific protease 7; test: SENP7 protease inhibitors, SAR follow-up, biochemical, luminescence (AID 504497); assay type: functional
Candida albicans [14] = test: growth inhibition of azole-resistant C. albicans, dose response, CaCi-8 strain, Alamar Blue, dry powder, set 3 (AID 488905); assay type: functional, organism-based
Candida albicans [15] = test: reversal of fluconazole resistance in C. albicans, dose response, CaCi-2 strain, Alamar Blue, dry powder, set 3 (AID 488907); assay type: functional, organism-based

DNA dC->dU-editing enzyme APOBEC-3A, sequence (P31941 whole entry, the tested form may be a part): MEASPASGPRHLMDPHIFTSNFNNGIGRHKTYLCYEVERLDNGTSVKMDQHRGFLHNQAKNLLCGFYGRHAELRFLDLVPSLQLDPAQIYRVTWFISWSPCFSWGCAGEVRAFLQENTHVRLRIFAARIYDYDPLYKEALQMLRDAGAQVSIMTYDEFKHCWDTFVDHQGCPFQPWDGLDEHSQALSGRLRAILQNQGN

C=C(C)C(=O)Nc1cccc(C2=NOC3(C2)C[C@H](C(N)=O)N(C(=O)c2ccccc2)C3)c1 (some centres not stated)
IC50 [1]: > 100 µM (inactive) | IC50 [2]: 3.85 µM (active) | EC50 [3]: 12.5 µM (inactive) | EC50 [4]: 17.1 µM (active) | IC50 [5]: 14.3 µM (active)

C[C@H](CN1CCC2(CC1)C(=O)NCN2c1ccccc1)NC(=O)c1ccc(F)cc1
IC50 (Phospholipase D2): 0.2 µM (active) | IC50 (Phospholipase D1): 0.413 µM (active)

O=C(N/N=C/c1c[nH]c2ccccc12)c1[nH]c2ccc(Cl)cc2c1-c1ccccc1
IC50 [6]: > 99 µM (inactive) | IC50 [7]: > 99 µM (inactive) | IC50 [8]: > 99 µM (inactive) | IC50 (Caspase-3 [9]): > 99 µM (inactive)

Cc1c(C(=O)Nc2nc3ccc(Cl)cc3s2)oc2ccccc12
IC50 [10]: > 99 µM (inactive) | IC50 (Caspase-3 [11]): > 99 µM (inactive) | IC50 [12]: > 99 µM (inactive) | IC50 [13]: > 99 µM (inactive)

O=C(c1ccc(Cl)cc1)N1CCN(c2ccc(C(F)(F)F)cn2)CC1
AC50 (Candida albicans [14]): 130 µM (active) | AC50 (Candida albicans [15]): 0.259 µM (active)

From ChEMBL document CHEMBL1201862, “PubChem BioAssay data set” (2004)
